This note sets out measurements from patent publication US11866450B2, “Modulators of Cystic Fibrosis Transmembrane Conductance regulator, pharmaceutical compositions, methods of treatment, and process for making the modulators” (priority 2018, dated 2024).

In the experiment the target is CFTR-mediated chloride transport (Homo sapiens, UniProt P13569). It is filed as cell-based. To be noted: enteroid cells incubated with test compound 18-24 hours, acute 10 μM forskolin and 300 nM Compound III; for Max. Activity: % of chloride transport with 3 μM Compound A, 3 μM Compound II and 300 nM acute Compound III triple combination control. The gist of the method:
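Human intestinal enteroid cells incubated with compound 18–24 h at 37° C., then membrane potential dye (FLIPR) read 15 min after chloride-free stimulation with 10 μM forskolin, 100 μM IBMX and 300 nM Compound III. AUC expressed as % of triple-combination control (3 μM Compound A, 3 μM Compound II, 300 nM Compound III).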

Chain of CFTR-mediated chloride transport (P13569 whole entry, looked up): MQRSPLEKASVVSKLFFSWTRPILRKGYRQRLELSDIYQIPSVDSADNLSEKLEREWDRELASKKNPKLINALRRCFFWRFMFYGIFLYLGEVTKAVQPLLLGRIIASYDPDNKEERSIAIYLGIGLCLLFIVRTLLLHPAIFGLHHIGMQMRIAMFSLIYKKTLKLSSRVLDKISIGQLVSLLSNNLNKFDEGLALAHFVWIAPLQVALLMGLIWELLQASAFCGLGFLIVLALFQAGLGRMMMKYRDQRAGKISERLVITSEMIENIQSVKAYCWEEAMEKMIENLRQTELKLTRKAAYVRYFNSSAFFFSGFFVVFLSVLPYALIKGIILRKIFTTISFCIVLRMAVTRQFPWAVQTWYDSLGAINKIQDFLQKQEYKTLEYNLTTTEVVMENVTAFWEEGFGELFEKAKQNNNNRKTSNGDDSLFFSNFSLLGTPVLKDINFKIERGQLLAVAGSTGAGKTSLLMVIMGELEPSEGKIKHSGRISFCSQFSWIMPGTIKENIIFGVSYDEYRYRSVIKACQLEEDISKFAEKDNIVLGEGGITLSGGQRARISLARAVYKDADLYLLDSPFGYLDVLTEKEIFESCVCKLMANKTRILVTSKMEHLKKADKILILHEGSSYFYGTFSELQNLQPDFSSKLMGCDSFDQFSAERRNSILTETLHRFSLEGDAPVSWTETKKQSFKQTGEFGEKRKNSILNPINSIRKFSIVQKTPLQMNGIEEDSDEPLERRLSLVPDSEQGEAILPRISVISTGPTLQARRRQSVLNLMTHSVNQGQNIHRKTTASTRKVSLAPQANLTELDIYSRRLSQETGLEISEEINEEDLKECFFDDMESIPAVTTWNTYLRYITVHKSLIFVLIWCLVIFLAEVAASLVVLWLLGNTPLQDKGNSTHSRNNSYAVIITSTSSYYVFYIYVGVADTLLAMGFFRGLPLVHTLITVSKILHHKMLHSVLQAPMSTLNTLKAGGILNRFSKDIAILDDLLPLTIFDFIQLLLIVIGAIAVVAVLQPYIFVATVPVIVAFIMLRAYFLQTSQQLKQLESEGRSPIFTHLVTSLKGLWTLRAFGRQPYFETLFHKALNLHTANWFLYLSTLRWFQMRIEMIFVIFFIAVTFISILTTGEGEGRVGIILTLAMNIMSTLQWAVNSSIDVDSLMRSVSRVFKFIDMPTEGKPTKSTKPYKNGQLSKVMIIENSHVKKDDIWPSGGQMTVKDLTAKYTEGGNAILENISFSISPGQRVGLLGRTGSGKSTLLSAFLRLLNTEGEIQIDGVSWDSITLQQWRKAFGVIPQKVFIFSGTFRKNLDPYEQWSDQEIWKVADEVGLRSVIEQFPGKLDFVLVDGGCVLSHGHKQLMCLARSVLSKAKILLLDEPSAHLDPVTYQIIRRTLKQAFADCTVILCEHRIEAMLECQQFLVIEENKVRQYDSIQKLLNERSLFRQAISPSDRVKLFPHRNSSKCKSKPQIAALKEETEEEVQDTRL

The term EC50 denotes the concentration that produces a half-maximal response. On to `CC1(C)C[C@H]2C[C@@H](F)CNc3cccc(n3)S(=O)(=O)NC(=O)c3ccc(-n4ccc(OCCC5C6(CC6)C56CC6)n4)nc3N1C2` (single isomer, unassigned) [Compound 309, 8-[3-(2-{Dispiro[2.0.2.1]heptan-7-yl}ethoxy)-1H-pyrazol-1-yl]-16-fluoro-12,12-dimethyl-2λ^6-thia-3,9,11,18,23-pentaazatetracyclo[17.3.1.111,14.05,10]tetracosa-1(22),5,7,9,19(23),20-hexaene-2,2,4-trione], for which the EC50 is less than 1000 nM and the “Max. Activity” value is on record as “+++ (+++ is >60%)”.
Consider `CC1(C)C[C@@H]2CCCNc3cccc(n3)S(=O)(=O)NC(=O)c3ccc(N4CCN(CCCC5(C(F)(F)F)CC5)C4=O)nc3N1C2` [Compound 205, (14S)-12,12-Dimethyl-8-(2-oxo-3-{3-[1-(trifluoromethyl)cyclopropyl]propyl}imidazolidin-1-yl)-2λ^6-thia-3,9,11,18,23-pentaazatetracyclo[17.3.1.111,14.05,10]tetracosa-1(22),5,7,9,19(23),20-hexaene-2,2,4-trione], for which the EC50 was less than 1000 nM and the “Max. Activity” value is recorded as “+++ (+++ is >60%)”.
Turning to `CC1(C)C[C@@H]2CCCNc3cc(O)cc(n3)S(=O)(=O)NC(=O)c3ccc(-n4ccc(OCCC5C6(CC6)C56CC6)n4)nc3N1C2` [Compound 264, (14S)-8-[3-(2-{Dispiro[2.0.2.1]heptan-7-yl}ethoxy)-1H-pyrazol-1-yl]-21-hydroxy-12,12-dimethyl-2λ^6-thia-3,9,11,18,23-pentaazatetracyclo[17.3.1.111,14.05,10]tetracosa-1(23),5,7,9,19,21-hexaene-2,2,4-trione], the EC50 was less than 1000 nM and the “Max. Activity” value is listed as “+++ (+++ is >60%)”.
The matching figures for `C[C@@H]1CC[C@H]2CN(c3nc(-n4ccc(OCCC5(C(F)(F)F)CC5)n4)ccc3C(=O)NS(=O)(=O)c3cccc(n3)N1)C(C)(C)C2` (single isomer, unassigned) [Compound 58, 12,12,17-trimethyl-8-(3-{2-[1-(trifluoromethyl)cyclopropyl]ethoxy}-1H-pyrazol-1-yl)-2λ^6-thia-3,9,11,18,23-pentaazatetracyclo[17.3.1.111,14.05,10]tetracosa-1(23),5(10),6,8,19,21-hexaene-2,2,4-trione]: less than 1000 nM and “+ (+ is <30%)”.
As to `CC1(C)C[C@H]2CCCCn3ccc(n3)S(=O)(=O)NC(=O)c3ccc(-n4ccc(OCCC5(C(F)(F)F)CC5)n4)nc3N1C2` (single isomer, unassigned) [Compound 44, 21,21-dimethyl-4-(3-{2-[1-(trifluoromethyl)cyclopropyl]ethoxy}-1H-pyrazol-1-yl)-10λ^6-thia-1,3,9,14,23-pentaazatetracyclo[17.2.1.111,14.02,7]tricosa-2,4,6,11(23),12-pentaene-8,10,10-trione], the EC50 is more than 3000 nM and the “Max. Activity” value was “++ (++ is 30-60%)”.
The matching figures for `CC(C)(C)CCC1CCN(c2ccc3c(n2)N2C[C@@H](CCCNc4cccc(n4)S(=O)(=O)NC3=O)CC2(C)C)C1=O` (stereo partly drawn) [Compound 79, (14S)-8-[3-(3,3-dimethylbutyl)-2-oxopyrrolidin-1-yl]-12,12-dimethyl-2λ^6-thia-3,9,11,18,23-pentaazatetracyclo[17.3.1.111,14.05,10]tetracosa-1(23),5,7,9,19,21-hexaene-2,2,4-trione]: less than 1000 nM and “++ (++ is 30-60%)”.
Take `CC1(C)C[C@@H]2CCCNc3cccc(n3)S(=O)(=O)NC(=O)c3ccc(-n4ccc(OC[C@@H](O)CC5(C(F)(F)F)CC5)n4)nc3N1C2` (single isomer, unassigned) [Compound 284]: the EC50 was less than 1000 nM and the “Max. Activity” value was “+++ (+++ is >60%)”.
The matching figures for `CC1(C)CC[C@H]2CCCNc3cccc(n3)S(=O)(=O)NC(=O)c3ccc(-n4ccc(OCC5C6(CC6)C56CC6)n4)nc3N21` (single isomer, unassigned) [Compound 125, 8-[3-({Dispiro[2.0.2.1]heptan-7-yl}methoxy)-1H-pyrazol-1-yl]-12,12-dimethyl-2λ^6-thia-3,9,11,19,24-pentaazatetracyclo[18.3.1.05,10.011,15]tetracosa-1(23),5(10),6,8,20(24),21-hexaene-2,2,4-trione]: less than 1000 nM and “+ (+ is <30%)”.
The matching figures for `CC1(C)C[C@H]2CCCNc3cccc(n3)S(=O)(=O)NC(=O)c3ccc(-n4ccc(OCC5(C(F)(F)F)CC5)n4)nc3N1C2` (single isomer, unassigned) [Compound 21, 12,12-dimethyl-8-(3-{[1-(trifluoromethyl)cyclopropyl]methoxy}-1H-pyrazol-1-yl)-2λ^6-thia-3,9,11,18,23-pentaazatetracyclo[17.3.1.111,14.05,10]tetracosa-1(23),5(10),6,8,19,21-hexaene-2,2,4-trione]: more than 3000 nM and “++ (++ is 30-60%)”.
The matching figures for `CC1(C)C[C@@H]2CCCNc3cccc(n3)S(=O)(=O)NC(=O)c3ccc(N4CCC5(CCCCC5)C4=O)nc3N1C2` [Compound 222, (14S)-12,12-dimethyl-8-{1-oxo-2-azaspiro[4.5]decan-2-yl}-2λ^6-thia-3,9,11,18,23-pentaazatetracyclo[17.3.1.111,14.05,10]tetracosa-1(22),5,7,9,19(23),20-hexaene-2,2,4-trione]: less than 1000 nM and “++ (++ is 30-60%)”.
As for `CC1(C)C[C@@H]2CN1c1nc(-n3ccc(OCCCC4(C(F)(F)F)CC4)n3)ccc1C(=O)NS(=O)(=O)c1cccc(n1)NCCO2` (single isomer, unassigned) [Compound 160, 12,12-dimethyl-8-(3-{3-[1-(trifluoromethyl)cyclopropyl]propoxy}-1H-pyrazol-1-yl)-15-oxa-2λ^6-thia-3,9,11,18,23-pentaazatetracyclo[17.3.1.111,14.05,10]tetracosa-1(23),5,7,9,19,21-hexaene-2,2,4-trione], the EC50 was less than 1000 nM and the “Max. Activity” value is on record as “+++ (+++ is >60%)”.
The matching figures for `CC1(C)CC[C@H]2CCNc3cccc(n3)S(=O)(=O)NC(=O)c3ccc(-n4ccc(OCCC5(C(F)(F)F)CC5)n4)nc3N21` (single isomer, unassigned) [Compound 116, 8,8-Dimethyl-12-(3-{2-[1-(trifluoromethyl)cyclopropyl]ethoxy}-1H-pyrazol-1-yl)-18λ^6-thia-2,9,11,17,23-pentaazatetracyclo[17.3.1.05,9.010,15]tricosa-1(23),10(15),11,13,19,21-hexaene-16,18,18-trione]: less than 1000 nM and “++ (++ is 30-60%)”.
The matching figures for `CC1(C)CC2CCCNc3cccc(n3)S(=N)(=O)NC(=O)c3ccc(-n4ccc(OCCC5(C(F)(F)F)CC5)n4)nc3N1C2` (stereo not drawn) [Compound 263, 2-imino-12,12-dimethyl-8-(3-{2-[1-(trifluoromethyl)cyclopropyl]ethoxy}-1H-pyrazol-1-yl)-2λ^6-thia-3,9,11,18,23-pentaazatetracyclo[17.3.1.111,14.05,10]tetracosa-1(23),5,7,9,19,21-hexaene-2,4-dione]: less than 1000 nM and “++ (++ is 30-60%)”.
The matching figures for `CC1(C)C[C@H]2CCCCc3cccc(c3)S(=O)(=O)NC(=O)c3ccc(-n4ccc(OCCC5(C(F)(F)F)CC5)n4)nc3N1C2` (single isomer, unassigned) [Compound 57, 12,12-dimethyl-8-(3-{2-[1-(trifluoromethyl)cyclopropyl]ethoxy}-1H-pyrazol-1-yl)-2λ^6-thia-3,9,11-triazatetracyclo[17.3.1.111,14.05,10]tetracosa-1(22),5,7,9,19(23),20-hexaene-2,2,4-trione]: less than 1000 nM and “++ (++ is 30-60%)”.
Turning to `CC(C)(C)CCCN1CCN(c2ccc3c(n2)N2CC(CCCn4ccc(n4)S(=O)(=O)NC3=O)CC2(C)C)C1=O` (stereo not drawn) [Compound 169, 4-[3-(4,4-dimethylpentyl)-2-oxoimidazolidin-1-yl]-20,20-dimethyl-10λ^6-thia-1,3,9,14,22-pentaazatetracyclo[16.2.1.111,14.02,7]docosa-2,4,6,11(22),12-pentaene-8,10,10-trione], the EC50 is less than 1000 nM and the “Max. Activity” value was “++ (++ is 30-60%)”.
The matching figures for `CC1(C)C[C@@H]2CN1c1nc(-n3ccc(OCCCC4(C(F)(F)F)CC4)n3)ccc1C(=O)NS(=O)(=O)c1cccc(n1)NCCO2` (single isomer, unassigned) [Compound 159, 12,12-dimethyl-8-(3-{3-[1-(trifluoromethyl)cyclopropyl]propoxy}-1H-pyrazol-1-yl)-15-oxa-2λ^6-thia-3,9,11,18,23-pentaazatetracyclo[17.3.1.111,14.05,10]tetracosa-1(23),5,7,9,19,21-hexaene-2,2,4-trione]: more than 3000 nM and “+ (+ is <30%)”.
The matching figures for `CC1(C)C[C@H]2CCCCCNc3cccc(n3)S(=O)(=O)NC(=O)c3ccc(-n4ccc(OCCC5(C(F)(F)F)CC5)n4)nc3N1C2` (single isomer, unassigned) [Compound 64, 12,12-dimethyl-8-(3-{2-[1-(trifluoromethyl)cyclopropyl]ethoxy}-1H-pyrazol-1-yl)-2λ^6-thia-3,9,11,20,25-pentaazatetracyclo[19.3.1.111,14.05,10]hexacosa-1(24),5,7,9,21(25),22-hexaene-2,2,4-trione]: less than 1000 nM and “++ (++ is 30-60%)”.
The matching figures for `[2H]c1ccc2nc1NCCC[C@@H]1CN(c3nc(-n4ccc(OCCC5C6(CC6)C56CC6)n4)ccc3C(=O)NS2(=O)=O)C(C)(C)C1` [Compound 300, (14S)-8-[3-(2-{dispiro[2.0.2.1]heptan-7-yl}ethoxy)-1H-pyrazol-1-yl]-12,12-dimethyl(20-deuterio)-2λ^6-thia-3,9,11,18,23-pentaazatetracyclo[17.3.1.111,14.05,10]tetracosa-1(23),5,7,9,19,21-hexaene-2,2,4-trione]: less than 1000 nM and “+++ (+++ is >60%)”.
